Test results published in patent US11896035B2, “Chemical mitigants in animal feed and feed ingredients” (priority 2014, dated 2024).

Test system: PEDv
Test: PEDv RT-PCR (Ct) in chemically treated, then inoculated feed matrices
Parameters: species or system Porcine Epidemic Diarrhea virus
Conditions: room temperature; for Spray Dried Plasma Average CT Count: spray dried animal plasma
Experimental: In a third study, experiments were conducted to evaluate the effectiveness of various chemical mitigation strategies on post-processing contamination of PEDv in feed and feed components. Treatments were arranged in a 7×4 factorial with 6 chemical treatments plus a control, and 4 feed matrices. […] The 4 feed matrices included: 1) complete swine diet (complete nursery diet), 2) blood meal, 3) porcine meat and bone meal (MBM), and 4) spray-dried animal plasma. The 4 feed treatments×6 chemical treatments (plus 1 control) equaled 28-1 kg batches. The feed matrices were chemically treated first and then inoculated to represent post-processing contamination. […] There were 3 segregated replicates of each batch for each day of analysis. All samples were stored at room temperature. Untreated control supernant from each of the 4 feed matrixes on day 0 was harvested and aliquots frozen and used as controls for subsequent analysis days Each day these samples were used as laboratory controls to evaluate inter assay variation.
Samples were analyzed for PEDv by RT-PCR. Analyzed values represent cycle time or cycle threshold (Ct.) before detection, Lower Ct values indicate greater nucleic acid presence, but not necessarily infectivity. Data were analyzed using the GLIMMIX procedure of SAS with fixed effects of chemical treatment, matrix, and time, as well as all interactions.

[Na+].[O-][Cl+2]([O-])[O-] [Sodium chlorate, sodium chlorate]
Porcine Blood Meal Average Ct Count (day 0): 29 | Porcine Blood Meal Average Ct Count (day 1): 29 | Porcine Blood Meal Average Ct Count (day 3): 31 | Porcine Blood Meal Average Ct Count (day 7): 32 | Porcine Blood Meal Average Ct Count (day 14): 33 | Porcine Blood Meal Average Ct Count (day 21): 36 | Porcine Blood Meal Average Ct Count (day 42): 36 | Porcine Meat and Bone Meal Average CT Count (day 0): 26 | Porcine Meat and Bone Meal Average CT Count (day 1): 25 | Porcine Meat and Bone Meal Average CT Count (day 3): 27 | Porcine Meat and Bone Meal Average CT Count (day 7): 27 | Porcine Meat and Bone Meal Average CT Count (day 14): 28 | Porcine Meat and Bone Meal Average CT Count (day 21): 27 | Porcine Meat and Bone Meal Average CT Count (day 42): 29 | Spray Dried Plasma Average CT Count (day 0): 28 | Spray Dried Plasma Average CT Count (day 1): 26 | Spray Dried Plasma Average CT Count (day 3): 28 | Spray Dried Plasma Average CT Count (day 7): 28 | Spray Dried Plasma Average CT Count (day 14): 28 | Spray Dried Plasma Average CT Count (day 21): 29 | Spray Dried Plasma Average CT Count (day 42): 28 | Swine Diet Average Ct Count (day 0): 28 | Swine Diet Average Ct Count (day 1): 28 | Swine Diet Average Ct Count (day 3): 29 | Swine Diet Average Ct Count (day 7): 30 | Swine Diet Average Ct Count (day 14): 29 | Swine Diet Average Ct Count (day 21): 32 | Swine Diet Average Ct Count (day 42): 32
